From the CheMixHub ionic liquid set

Assay: xn = mol fraction of the nth substance listed

CCCC[n+]1ccn(C)c1.O=S(=O)([N-]S(=O)(=O)C(F)(F)F)C(F)(F)F + CS(C)=O
100 kPa, x2 = 0
Settings | viscosity [mPa·s]
303.15 K | 40.54
318.15 K | 23.75

CC#N + C[N+](C)(C)CCC[N+]1(C)CCCCC1.N#C[N-]C#N.N#C[N-]C#N
100 kPa, x2 = 0
Settings | viscosity [mPa·s]
288.15 K | 0.382
298.15 K | 0.348
303.15 K | 0.333
333.15 K | 0.266

CC#N + C[N+](C)(C)CCC[n+]1ccccc1.N#C[N-]C#N.N#C[N-]C#N
100 kPa, x2 = 0
Settings | viscosity [mPa·s]
328.15 K | 0.275
333.15 K | 0.266

CCCC[n+]1ccccc1.O=S(=O)([N-]S(=O)(=O)C(F)(F)F)C(F)(F)F + Cc1ccccc1
100 kPa
Settings | viscosity [mPa·s]
293.15 K, x2 = 0.3972 | 22.63
293.15 K, x2 = 0.6068 | 10
298.15 K, x2 = 0 | 52.9
298.15 K, x2 = 0.5025 | 13.64
303.15 K, x2 = 0.2939 | 21.68
308.15 K, x2 = 0.3972 | 14.21
308.15 K, x2 = 0.5025 | 10.54
313.15 K, x2 = 0.3972 | 12.3
313.15 K, x2 = 0.6068 | 6.62

CCCC[n+]1ccn(C)c1.F[P-](F)(F)(F)(F)F + Cc1ccccc1
101 kPa
Settings | viscosity [mPa·s]
298.15 K, x2 = 0.05 | 172.6
300.65 K, x2 = 0.2 | 74.9
300.65 K, x2 = 0.4 | 31.2
303.15 K, x2 = 0.1 | 73.3
303.15 K, x2 = 0.3 | 39.5
305.65 K, x2 = 0.3 | 32.5
308.15 K, x2 = 0.3 | 27.6
310.65 K, x2 = 0.1 | 39.8
313.15 K, x2 = 0.4 | 14.12
318.15 K, x2 = 0.3 | 17.56
320.65 K, x2 = 0.3 | 16.21
320.65 K, x2 = 0.4 | 11.32
328.15 K, x2 = 0.05 | 27.7
330.65 K, x2 = 0.05 | 26
335.65 K, x2 = 0.4 | 8.8
338.15 K, x2 = 0.05 | 22.02

CCCCCCCC/C=C\CCCCCCCC(=O)O + Cc1ccccc1 + CC[N+](CC)(CC)CC.[Cl-]
298.2 K, 100 kPa
Settings | viscosity [mPa·s]
x2 = 0, x3 = 0.25 | 202
x2 = 0.2, x3 = 0.2 | 39
x2 = 0.4, x3 = 0.149 | 10.8
x2 = 0.6, x3 = 0.1 | 3.19
x2 = 0.8, x3 = 0.05 | 0.91

CC[n+]1ccn(C)c1.O=S(=O)([O-])O + Cc1ncc(CO)c(CO)c1O.Cl + O
viscosity [mPa·s], 100 kPa
Settings | 293.15 K | 298.15 K | 303.15 K | 308.15 K | 313.15 K
x2 = 0, x1 = 0.0009002 | 1.048 | 0.945 | 0.835 | 0.758 | 0.693
x2 = 0, x1 = 0.001799 | 1.067 | 0.948 | 0.855 | 0.772 | 0.702
x2 = 0, x1 = 0.002696 | 1.083 | 0.963 | 0.862 | 0.776 | 0.707
x2 = 0.000265, x1 = 0.002695 | 1.088 | 0.968 | 0.867 | 0.781 | 0.712
x2 = 0.0002728, x1 = 0.0008999 | 1.052 | 0.949 | 0.839 | 0.762 | 0.697
x2 = 0.0002827, x1 = 0.001798 | 1.072 | 0.953 | 0.86 | 0.777 | 0.707
x2 = 0.0004855, x1 = 0.0008998 | 1.056 | 0.953 | 0.843 | 0.766 | 0.701
x2 = 0.0005353, x1 = 0.002694 | 1.093 | 0.973 | 0.872 | 0.786 | 0.717
x2 = 0.0005469, x1 = 0.001798 | 1.077 | 0.958 | 0.865 | 0.782 | 0.712
x2 = 0.0008161, x1 = 0.0008994 | 1.062 | 0.959 | 0.849 | 0.772 | 0.707
x2 = 0.0008296, x1 = 0.002693 | 1.099 | 0.979 | 0.878 | 0.792 | 0.723
x2 = 0.0008311, x1 = 0.001797 | 1.082 | 0.963 | 0.87 | 0.787 | 0.717
x2 = 0.001096, x1 = 0.0008992 | 1.067 | 0.964 | 0.854 | 0.777 | 0.712
x2 = 0.001123, x1 = 0.001797 | 1.088 | 0.969 | 0.877 | 0.793 | 0.723
x2 = 0.001138, x1 = 0.002693 | 1.106 | 0.986 | 0.884 | 0.797 | 0.729
x2 = 0.001364, x1 = 0.000899 | 1.073 | 0.97 | 0.86 | 0.784 | 0.718
x2 = 0.001383, x1 = 0.001796 | 1.094 | 0.976 | 0.882 | 0.798 | 0.728
x2 = 0.001395, x1 = 0.002692 | 1.111 | 0.992 | 0.889 | 0.803 | 0.734
x2 = 0.001638, x1 = 0.0008987 | 1.078 | 0.976 | 0.866 | 0.79 | 0.724
x2 = 0.001641, x1 = 0.001796 | 1.099 | 0.981 | 0.888 | 0.805 | 0.734
x2 = 0.001656, x1 = 0.002691 | 1.117 | 0.998 | 0.896 | 0.808 | 0.739
